Source: patent USRE37781E1, “Substituted cyclic carbonyls and derivatives thereof useful as retroviral protease inhibitors” (DuPont Pharmaceuticals Company, priority 1991, dated 2002)
Like-named read-outs stand apart in the source and are kept apart here.

Key:
[1] = biological target: single-chain tethered dimer of HIV protease (Human immunodeficiency virus 1, UniProt P04585); experiment: biochemical; type: biochemical; parameters: fused on or other part: A second copy of the same protease unit is joined to the first by a short peptide tether, giving one polypeptide
[2] = system: HIV-1 (RF) in MT-2 cells; experiment: microbe, parasite or virus in culture; type: cell-based
Summary of the method: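 HIV-1 laboratory strains (RF, MN, IIIB) grown in H9 cells in RPMI 1640 with 5% FCS; infections in MT-2 cells. Viral RNA quantified by hybridization with biotinylated gag/pol capture probes on streptavidin plates and alkaline phosphatase-conjugated reporter probes; BH10 gag-pol in vitro transcripts serve as RNA standards.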

Compound: O=S1(=O)N(CCCCCO)C(Cc2ccccc2)C(O)C(O)C(Cc2ccccc2)N1Cc1ccc2ccccc2c1 (stereo not shown) [23AF]
- Ki ([1]; Table 2m, read-out: HPLC Ki): < 10 nM
- IC90 ([2]; Table 2m): +++ (+++=<10 μg/mL)

Compound: O=S1(=O)N(CCCCCO)C(Cc2ccccc2)C(O)C(O)C(Cc2ccccc2)N1Cc1ccc(CO)cc1 (stereo not shown) [23AG]
- Ki ([1]; Table 2m, read-out: HPLC Ki): < 10 nM
- IC90 ([2]; Table 2m): +++ (+++=<10 μg/mL)

Compound: O=S1(=O)N(CCCCCO)C(Cc2ccccc2)C(O)C(O)C(Cc2ccccc2)N1Cc1cccc(CO)c1 (stereo not shown) [23AH]
- Ki ([1]; Table 2m, read-out: HPLC Ki): < 10 nM
- IC90 ([2]; Table 2m): +++ (+++=<10 μg/mL)

Compound: O=S1(=O)NC(Cc2ccccc2)C(O)C(O)C(Cc2ccccc2)N1 (stereo not shown) [23A]
- Ki ([1]; Table 2m, read-out: HPLC Ki): > 1000 nM
- IC90 ([2]; Table 2m): ++ (++=10 to 100 μg/mL)

Compound: C=CCN1C(Cc2ccccc2)C(O)C(O)C(Cc2ccccc2)N(CC=C)S1(=O)=O (stereo not shown) [23E]
- Ki ([1]; Table 2m, read-out: HPLC Ki): 10 to 1000 nM
- IC90 ([2]; Table 2m): +++ (+++=<10 μg/mL)

Compound: CCCCN1C(Cc2ccccc2)C(O)C(O)C(Cc2ccccc2)N(CCCC)S1(=O)=O (stereo not shown) [23G]
- Ki ([1]; Table 2m, read-out: HPLC Ki): < 10 nM
- IC90 ([2]; Table 2m): +++ (+++=<10 μg/mL)

Compound: O=S1(=O)N(Cc2ccc3ccccc3c2)C(Cc2ccccc2)C(O)C(O)C(Cc2ccccc2)N1Cc1ccc2ccccc2c1 (stereo not shown) [23H]
- Ki ([1]; Table 2m, read-out: HPLC Ki): < 10 nM
- IC90 ([2]; Table 2m): +++ (+++=<10 μg/mL)

Compound: O=S1(=O)N(Cc2ccccc2)C(Cc2ccccc2)C(O)C(O)C(Cc2ccccc2)N1Cc1ccccc1 (stereo not shown) [23I]
- Ki ([1]; Table 2m, read-out: HPLC Ki): 10 to 1000 nM
- IC90 ([2]; Table 2m): +++ (+++=<10 μg/mL)

Compound: O=S1(=O)N(Cc2ccc(OCc3ccccc3)cc2)C(Cc2ccccc2)C(O)C(O)C(Cc2ccccc2)N1Cc1ccc(OCc2ccccc2)cc1 (stereo not shown) [23J]
- Ki ([1]; Table 2m, read-out: HPLC Ki): > 1000 nM
- IC90 ([2]; Table 2m): ++ (++=10 to 100 μg/mL)

Compound: O=S1(=O)N(Cc2ccc(O)cc2)C(Cc2ccccc2)C(O)C(O)C(Cc2ccccc2)N1Cc1ccc(O)cc1 (stereo not shown) [23K]
- Ki ([1]; Table 2m, read-out: HPLC Ki): < 10 nM
- IC90 ([2]; Table 2m): +++ (+++=<10 μg/mL)

Compound: Nc1cccc(CN2C(Cc3ccccc3)C(O)C(O)C(Cc3ccccc3)N(Cc3cccc(N)c3)S2(=O)=O)c1 (stereo not shown) [23M]
- Ki ([1]; Table 2m, read-out: HPLC Ki): < 10 nM
- IC90 ([2]; Table 2m): +++ (+++=<10 μg/mL)

Compound: O=S1(=O)N(Cc2cccc(CO)c2)C(Cc2ccccc2)C(O)C(O)C(Cc2ccccc2)N1Cc1cccc(CO)c1 (stereo not shown) [23N]
- Ki ([1]; Table 2m, read-out: HPLC Ki): < 10 nM
- IC90 ([2]; Table 2m): +++ (+++=<10 μg/mL)

Compound: COCc1cccc(CN2C(Cc3ccccc3)C(O)C(O)C(Cc3ccccc3)N(Cc3cccc(COC)c3)S2(=O)=O)c1 (stereo not shown) [23P]
- Ki ([1]; Table 2m, read-out: HPLC Ki): 10 to 1000 nM
- IC90 ([2]; Table 2m): ++ (++=10 to 100 μg/mL)

Compound: O=Cc1cccc(CN2C(Cc3ccccc3)C(O)C(O)C(Cc3ccccc3)N(Cc3cccc(C=O)c3)S2(=O)=O)c1 (stereo not shown) [23Q]
- Ki ([1]; Table 2m, read-out: HPLC Ki): < 10 nM
- IC90 ([2]; Table 2m): +++ (+++=<10 μg/mL)

Compound: O=S1(=O)N(CC2CCOC2)C(Cc2ccccc2)C(O)C(O)C(Cc2ccccc2)N1CC1CCOC1 (stereo not shown) [23R]
- Ki ([1]; Table 2m, read-out: HPLC Ki): 10 to 1000 nM
- IC90 ([2]; Table 2m): +++ (+++=<10 μg/mL)

Compound: O=S1(=O)N(Cc2cccc(C=NO)c2)C(Cc2ccccc2)C(O)C(O)C(Cc2ccccc2)N1Cc1cccc(C=NO)c1 (stereo not shown) [23S]
- Ki ([1]; Table 2m, read-out: HPLC Ki): < 10 nM
- IC90 ([2]; Table 2m): +++ (+++=<10 μg/mL)

Compound: CC(=O)c1cccc(CN2C(Cc3ccccc3)C(O)C(O)C(Cc3ccccc3)N(Cc3cccc(C(C)=O)c3)S2(=O)=O)c1 (stereo not shown) [23T]
- Ki ([1]; Table 2m, read-out: HPLC Ki): < 10 nM
- IC90 ([2]; Table 2m): +++ (+++=<10 μg/mL)

Compound: CC(=NO)c1cccc(CN2C(Cc3ccccc3)C(O)C(O)C(Cc3ccccc3)N(Cc3cccc(C(C)=NO)c3)S2(=O)=O)c1 (stereo not shown) [23U]
- Ki ([1]; Table 2m, read-out: HPLC Ki): < 10 nM
- IC90 ([2]; Table 2m): +++ (+++=<10 μg/mL)

Compound: CN1C(Cc2ccccc2)C(O)C(O)C(Cc2ccccc2)N(C)S1(=O)=O (stereo not shown) [23V]
- Ki ([1]; Table 2m, read-out: HPLC Ki): > 1000 nM
- IC90 ([2]; Table 2m): ++/+ (The ++/+ is used in the cases where an IC90 was determined to be >50 μg/mL)

Compound: CCN1C(Cc2ccccc2)C(O)C(O)C(Cc2ccccc2)N(CC)S1(=O)=O (stereo not shown) [23W]
- Ki ([1]; Table 2m, read-out: HPLC Ki): 10 to 1000 nM
- IC90 ([2]; Table 2m): ++ (++=10 to 100 μg/mL)

Compound: CCCN1C(Cc2ccccc2)C(O)C(O)C(Cc2ccccc2)N(CCC)S1(=O)=O (stereo not shown) [23X]
- Ki ([1]; Table 2m, read-out: HPLC Ki): < 10 nM
- IC90 ([2]; Table 2m): +++ (+++=<10 μg/mL)

Compound: N#Cc1cccc(CN2C(Cc3ccccc3)C(O)C(O)C(Cc3ccccc3)N(Cc3cccc(C#N)c3)S2(=O)=O)c1 (stereo not shown) [23Y]
- Ki ([1]; Table 2m, read-out: HPLC Ki): 10 to 1000 nM
- IC90 ([2]; Table 2m): +++ (+++=<10 μg/mL)

Compound: O=P1(Oc2ccccc2)N[C@H](Cc2ccccc2)[C@H](O)[C@@H](O)[C@@H](Cc2ccccc2)N1 (stereo partly shown) [28A]
- Ki ([1]; Table 2r, read-out: Ki HPLC): > 1000 nM
- IC90 ([2]; Table 2r): ++ (++=10 to 100 μg/mL)

Compound: O=P1(Oc2ccccc2)N(CC2CC2)[C@H](Cc2ccccc2)[C@H](O)[C@@H](O)[C@@H](Cc2ccccc2)N1CC1CC1 (stereo partly shown) [28C]
- Ki ([1]; Table 2r, read-out: Ki HPLC): 10 to 1000 nM
- IC90 ([2]; Table 2r): +++ (+++=<10 μg/mL)

Compound: O=P1(Oc2ccccc2)N(Cc2ccc(CO)cc2)[C@H](Cc2ccccc2)[C@H](O)[C@@H](O)[C@@H](Cc2ccccc2)N1Cc1ccc(CO)cc1 (stereo partly shown) [28E]
- Ki ([1]; Table 2r, read-out: Ki HPLC): 10 to 1000 nM
- IC90 ([2]; Table 2r): +++ (+++=<10 μg/mL)

Compound: CCOP1(=O)N[C@H](Cc2ccccc2)[C@H](O)[C@@H](O)[C@@H](Cc2ccccc2)N1 (stereo partly shown) [28F]
- Ki ([1]; Table 2r, read-out: Ki HPLC): > 1000 nM
- IC90 ([2]; Table 2r): ++/+ (The ++/+ is used in the cases where an IC90 was determined to be >50 μg/mL)
